Data reported in patent US5677350A, “Inhibition of cancer cell growth, proliferation, and metastasis using N,N'-dα,ω-diaminoalkanes” (priority 1995, dated 1997).

Experiments:
[1] = test system: active putrescine transport; experiment: Uptake of (1,4-14C)-putrescine by H-4-II-E hepatoma cells; assay type: cell-based, rat
Experimental: (1,4-^14 C)-putrescine (10 μM) was added to the culture medium, and radioactivity measured in the cells (dpm/10 μg of protein). Uptake by control cells was considered to be 100%.
Because putrescine uptake by cells is regulated by an active transport system, its Km was determined for the H-4-II-E hepatoma cell line. The uptake of (1,4-^14 C)-putrescine was determined at two different putrescine concentrations as a function of time.
Each value of the plot was corrected by subtracting the amount of label due to non-specific binding to the cell membranae.

ODC [2] = biological target: T1, ODC (Rattus norvegicus, UniProt P09057); details: for inhibition at 15000 µM: read-out: ODC activity decreased
T1 sequence (P09057 1-461): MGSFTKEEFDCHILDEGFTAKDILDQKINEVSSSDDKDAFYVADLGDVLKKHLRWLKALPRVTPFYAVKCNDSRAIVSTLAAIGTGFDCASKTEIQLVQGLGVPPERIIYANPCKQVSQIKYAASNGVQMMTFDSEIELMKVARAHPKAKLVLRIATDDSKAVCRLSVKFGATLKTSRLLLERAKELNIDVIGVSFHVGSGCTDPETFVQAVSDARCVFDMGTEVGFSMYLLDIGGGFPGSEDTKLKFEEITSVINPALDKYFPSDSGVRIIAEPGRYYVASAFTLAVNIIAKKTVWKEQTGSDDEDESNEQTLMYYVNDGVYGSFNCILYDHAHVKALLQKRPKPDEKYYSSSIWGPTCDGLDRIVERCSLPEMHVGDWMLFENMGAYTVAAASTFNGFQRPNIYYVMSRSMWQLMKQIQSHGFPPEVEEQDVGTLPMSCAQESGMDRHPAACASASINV

[3] = test system: insulin-induced H-35 hepatoma cells; experiment: Intracellular polyamine levels in insulin-induced H-35 hepatoma cells; assay type: cell-based, rat; details: 100 μM, hour 4
ODC [4] = biological target: T1, ODC; experiment: ODC activity in insulin-induced H-35 hepatoma cells; assay type: cell-based; details: 100 μM; for ODC activity (in words): added simultaneously with insulin
Experimental: It is known that in hepatoma H-35 cells, ODC activity is very low in quiescent cells, and is increased by the addition of 10^-6 M insulin, reaching a peak approximately 4 to 5 hours after the addition of the insulin.

[5] = test system: rat H-4-II-E hepatoma cells; experiment: Proliferation of rat H-4-II-E hepatoma cells in culture; assay type: cell-based
Experimental: (§1) Incubation of the cultures was carried out in standard fashion in the presence of 1 mM aminoguandine, an inhibitor of polyamine oxidases (PAO).
Cell proliferation studies were also conducted to analyze the effect of the terminal groups on cell inhibition. […] The results are depicted graphically in FIG. 5.
Comparative proliferation studies were also carried out to study the effect of chain length on the inhibitory effect of N,N'-dibenzylaminoalkanes. (See FIG. 6.) The in vitro inhibitory effects of DMP, DMC, and DBPr, were studied in the same rat H-4-II-E hepatoma cells as the above experiments.
Results are shown graphically in FIG. 10.

[6] = test system: cell-derived rat and human xenografts; details: compared with 0.15% DBP; cited from earlier work
[7] = test system: rat H-4-II-E hepatoma cells; experiment: Cell morphology of rat H-4-II-E hepatoma cells (photomicrographs); assay type: cell-based
Experimental: as §1
FIG. 7 is a series of photomicrographs (×160) of the above homologous cultures. The photomicrographs were taken 24 hours after introduction of the dibenzyldiaminoalkanes. […] Photo 7A is the control culture.

H-35 cells = experiment: DBP uptake and intracellular distribution in H-35 hepatoma cells; assay type: in vitro ADME, rat
[8] = added 3 hours after insulin (time 4 hours)
[9] = H-35 cells not treated with insulin

## NCCCCN [putrescine, 1,4-diaminobutane]
[1]; 2 mM and 20 mM (1,4-14C)-putrescine
  Km: 5.2 ± 0.6 µM
ODC [2]
  inhibition at 15000 µM: 57%
[3]
  intracellular putrescine level: greatly increased the putrescine cell contents
  intracellular spermidine level: very little effect on intracellular spermidine and spermine levels
  intracellular spermine level: very little effect on intracellular spermidine and spermine levels
ODC [4]; time 1 hour
  ODC inhibition (in words): required longer time periods to reach similar ODC inhibition levels

## CCNCCCCNCC [DEP, diethyl putrescine]
ODC [2]
  inhibition at 15000 µM: 13%

## NCCCC(N)(C(=O)O)C(F)F (stereo not drawn) [DFMO, difluoromethylornithine]
[5]; 100 μM, time not stated
  effect on cell proliferation: ineffective in inhibiting cell proliferation
[5]; 1 mM, after 48 hours
  effect on cell proliferation: inhibit cell proliferation
[5]; H4IIE, rat hepatoma cell line, read-out: concentration required for similar cytostatic effect
  minimal effective concentration: 1000 µM
[3]
  intracellular putrescine level: decreased the endogenous levels of putrescine
  intracellular spermidine level: lowered the levels of spermidine
  intracellular spermine level: Neither reagent had an effect on the intracellular concentration of spermine
[6]
  concentration required to produce the same effect on xenografts: 2%
ODC [4]; added 1 hour before harvesting (6 hours after insulin)
  ODC inhibited from the control group: 79%
ODC [4]; [8]
  ODC inhibition (in words): ODC inhibition values were very similar
ODC [4]
  ODC activity (in words): no significant ODC activity was detected
[7]; 100 μM, 24 hours
  effect on cell morphology: no morphological changes
[7]; 1 mM
  effect on cell morphology: no morphological changes

## CNCCCCNC [DMP, dimethyl putrescine]
ODC [2]
  inhibition at 15000 µM: 33%

## c1ccc(CNCCCCCNCc2ccccc2)cc1 [DBC, N,N'-dibenzylcadaverine]
[1]; (1,4-14C)-putrescine 10 μM
  inhibition of uptake of exogenous putrescine: produced an inhibition of the uptake of exogenous putrescine
ODC [2]; isolated ODC
  in vitro ODC inhibition (in words): weaker inhibitors than putrescine itself
ODC [2]
  inhibition at 15000 µM: < 10%
[5]; 100 μM, time not stated
  effect on cell proliferation: showed inhibition of cell proliferation
ODC [4]; [8]
  ODC inhibition (in words): ODC inhibition values were very similar
ODC [4]
  ODC activity (in words): no significant ODC activity was detected
[7]; 100 μM, 24 hours
  effect on cell morphology: affect cell morphology similarly

## c1ccc(CNCCCCNCc2ccccc2)cc1 [DBP, N,N'-dibenzylputrescine]
ODC [2]
  inhibition at 15000 µM: < 10%
ODC [4]; [8]
  ODC inhibition (in words): ODC inhibition values were very similar
ODC [4]
  ODC activity (in words): no significant ODC activity was detected
ODC [4]; time 1 hour
  ODC inhibition (in words): required longer time periods to reach similar ODC inhibition levels
H-35 cells; [9]
  intracellular distribution of DBP, cytosol: 97%
  intracellular distribution of DBP, nuclear fraction: 2%
H-35 cells; H-35 cells not treated with insulin, 100 μM, 24 hours
  DBP uptake, of the amount added: approximately 6±2%
H-35 cells; insulin-induced H-35 cells, 100 μM
  DBP uptake, of the amount of putrescine added to the medium: approximately 13±4%

## c1ccc(CNCCCNCc2ccccc2)cc1 [DBPr, dibenzylpropanediamine]
ODC [2]
  inhibition at 15000 µM: < 10%
